Reference: PMC3933693, “Novel Inhibitors of Mitochondrial sn-Glycerol 3-phosphate Dehydrogenase” (PLoS ONE, 2014)
Where “and” joins values, the source holds several entries; their conditions need not be identical. Equal entries are not always repeated.

What was measured:
[1] = test system: skeletal muscle mitochondria; experiment: Mitochondrial respiration (Seahorse XF24) in plate-attached skeletal muscle mitochondria; assay type: biochemical, rat
Method: The effects of small-molecule inhibitors on respiration were tested in plate-attached skeletal muscle mitochondria using a Seahorse XF24 Analyzer according to published protocols. Briefly, mitochondria (2 or 4 µg protein) were attached to Seahorse assay plates by centrifugation in a mannitol and sucrose-based medium (Seahorse MAS buffer) containing 0.3% (w/v) BSA without or with 250 nM free calcium at pH 7.0. […] Compounds were added in these media just prior to loading the assay plate into the Seahorse instrument. Additions were made to set respiration in basal state 2 (substrate only), phosphorylating state 3 (5 mM ADP), non-phosphorylating state 4o (0.5 ug ⋅ mL^−1 oligomycin), and to reveal the non-mitochondrial rate (2 µM myxothiazol and 2.5 µM antimycin A). Each concentration of compound was tested in at least two wells on each plate. At least three biological replicates of each titration in each substrate condition were performed.

[2] = target: T1, mGPDH (Rattus norvegicus, UniProt P35571); experiment: mGPDH enzymatic activity (DCPIP-linked reduction by glycerol phosphate) in frozen-thawed skeletal muscle mitochondria; assay type: biochemical
T1 construct: from tissue; host or cells: skeletal muscle mitochondria
T1 sequence (P35571 43-727): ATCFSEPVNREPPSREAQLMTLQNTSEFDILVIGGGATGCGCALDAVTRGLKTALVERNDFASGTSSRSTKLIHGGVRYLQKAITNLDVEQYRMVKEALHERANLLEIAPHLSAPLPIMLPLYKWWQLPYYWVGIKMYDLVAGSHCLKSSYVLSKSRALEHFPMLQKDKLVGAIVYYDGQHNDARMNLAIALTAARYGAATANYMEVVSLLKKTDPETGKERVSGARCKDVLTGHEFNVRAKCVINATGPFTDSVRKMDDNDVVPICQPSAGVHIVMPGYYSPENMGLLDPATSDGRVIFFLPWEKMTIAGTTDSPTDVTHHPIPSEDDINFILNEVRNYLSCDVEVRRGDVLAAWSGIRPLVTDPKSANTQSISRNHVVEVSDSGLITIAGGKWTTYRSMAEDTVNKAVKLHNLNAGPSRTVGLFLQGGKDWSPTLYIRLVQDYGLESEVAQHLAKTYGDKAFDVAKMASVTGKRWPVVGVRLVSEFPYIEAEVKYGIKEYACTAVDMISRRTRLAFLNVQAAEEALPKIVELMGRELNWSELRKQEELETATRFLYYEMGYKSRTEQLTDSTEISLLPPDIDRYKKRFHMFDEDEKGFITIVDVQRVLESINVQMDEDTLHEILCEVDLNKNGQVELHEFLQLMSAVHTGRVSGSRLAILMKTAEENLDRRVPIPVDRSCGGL
Method: Activity of mGPDH in frozen-thawed skeletal muscle mitochondria was measured as 2,6-dichlorophenolindophenol (DCPIP)-linked reduction by glycerol phosphate as described previously in the presence of 1 µM free calcium. Linear rates of change in absorbance (λ = 600 nm) were measured on the PHERAstar microplate reader and converted to rates of DCPIP reduction using an extinction coefficient of 21 mM^−1 ⋅ cm^−1 and a calculated pathlength of 0.6 cm. Kinetic parameters and inhibitor constants were determined by co-varying glycerol phosphate and novel inhibitors according to recommended procedures and calculated for each data set using GraphPad Prism. Vmax and Km were determined using hyperbolic curves fit to the Michaelis-Menten equation: rate = (Vmax ⋅ [substrate]) ⋅ (K m+[substrate])^ −1. Hill Slope and IC50 were determined using unconstrained, sigmoidal dose-response curve fits of % remaining activity against concentration of iGP. K ic and K iu were determined using plots of rate^−1 vs iGP and GP ⋅ rate^−1 vs iGP, respectively. Linear regression analysis yielded an average x-coordinate at which the best-fit lines intersect. These x-coordinates correspond to -K ic and -K iu in their respective plots. The apparent Vmax of mGPDH is dependent upon the concentration of DCPIP used, [38]. Therefore, to determine the maximal activity of mGPDH in isolated synaptosomes, DCPIP was replaced by 1 mM potassium ferricyanide and linear rates of change in absorbance (λ = 420 nm) were converted to rates of ferricyanide reduction using an extinction coefficient of 1.04 mM^−1 ⋅ cm^−1 and a calculated pathlength of 0.6 cm.

[3] = test system: ubiquinone-binding site of complex I (site IQ); experiment: Site-specific H2O2 production from site IQ in skeletal muscle mitochondria; assay type: biochemical, rat;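 also: H2O2 from superoxide detected by Amplex UltraRed fluorescence with added superoxide dismutase and horseradish peroxidase, endpoint read 30–40 min after substrate addition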
[4] = target: T2, purified rabbit muscle cGPDH (Oryctolagus cuniculus, UniProt P08507); experiment: cGPDH enzymatic activity (NADH oxidation in the presence of DHAP); assay type: biochemical; settings: Fig. 5
T2 construct: Activity of purified rabbit muscle cGPDH was measured as described by the manufacturer; purchased; host or cells: rabbit muscle
T2 sequence (P08507 1-349): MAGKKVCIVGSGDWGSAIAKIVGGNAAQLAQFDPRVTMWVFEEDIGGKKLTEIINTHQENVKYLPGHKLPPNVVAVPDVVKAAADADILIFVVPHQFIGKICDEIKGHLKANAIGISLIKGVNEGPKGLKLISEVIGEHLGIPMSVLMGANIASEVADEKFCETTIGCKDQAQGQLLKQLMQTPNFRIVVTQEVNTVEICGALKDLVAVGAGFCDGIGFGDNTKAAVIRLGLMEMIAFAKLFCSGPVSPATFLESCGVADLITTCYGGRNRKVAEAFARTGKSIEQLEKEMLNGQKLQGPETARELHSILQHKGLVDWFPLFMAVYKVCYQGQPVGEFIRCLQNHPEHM
Method: The effects of small-molecule inhibitors on cGPDH and mGPDH enzymatic activity were tested according to established procedures. Activity of purified rabbit muscle cGPDH was measured as described by the manufacturer as the rate of oxidation of NADH in the presence of DHAP on the Varian fluorimeter (λex = 365 nm, λem = 450 nm). Activity of cGPDH in frozen-thawed synaptosomes was measured at 37°C in a BMG Labtech PHERAstar Plus microplate reader as the linear rate of change in NADH absorbance (λ = 340 nm) specific to the addition of 2.5 mM DHAP and insensitive to 4 µM rotenone. Rates were converted to nmol NADH using an extinction coefficient of 6.22 mM^−1 ⋅ cm^−1 and a calculated pathlength of 0.6 cm.

[5] = test system: skeletal muscle mitochondria; experiment: Mitochondrial membrane potential (ΔΨm, TMRM) powered by glycerol phosphate; assay type: biochemical, rat

Which “effect on glycerol phosphate-dependent respiration” value ([1]; 25 and 80 µM, 16.7 mM glycerol phosphate, rotenone, 250 nM free calcium) does the source give for `O=C(O)CCC(=O)Nc1ccc(-c2nc3ccccc3[nH]2)cc1` [iGP-1] here?
Its value is “significantly decreased”.

What about the “effect on respiration on other substrates” value ([1]; pyruvate and malate, glutamate and malate, succinate and rotenone) of the same compound?
The value was “without altering”.

What about the “mGPDH Activity Hill Slope” value ([2]; 1 µM free calcium) of the same compound?
Its value is 0.92 and 0.92±0.08.

What about the IC50 ([2]; 1 µM free calcium, Fig. 9A) of the same compound?
The IC50 was 6.3 ± 0.7 µM.

What about the “effect on mGPDH enzymatic activity” value ([2]; all concentrations tested, Fig. 5) of the same compound?
The value was “significantly inhibited”.

And the “K iu (uncompetitive inhibitor dissociation constant)” value ([2]; co-varying glycerol phosphate and inhibitor)?
Its value is 14.6 ± 1.5 µM.

And the Ki ([2]; co-varying glycerol phosphate and inhibitor, read-out: K ic (competitive inhibitor dissociation constant))?
Its Ki is 9.5 ± 1.1 µM.

What about the “IQ H2O2 production with 5 mM Suc (% change at 80 μM)” value ([3]; 80 μM, 5 mM succinate) of the same compound?
The value was -9%.

And the “concentration above which H2O2 production by site IQ starts to be inhibited” value ([3]; Fig. 6B)?
The value was “above 10 µM”.

And the “IQ (% change from DMSO)” value ([3]; primary screen, ∼2.5 µM, average of duplicates, 5 mM succinate)?
The value was 1.0%.

What about the “effect on the soluble form of GPDH (cGPDH) activity” value [4] of the same compound?
The value was “did not inhibit”.

And the “ΔΨm with GP + Nig (% change at 80 μM)” value ([5]; 80 μM, 16.7 mM glycerol phosphate, 4 µM rotenone, nigericin)?
The value was -20%.

What about the “effect on ΔΨm powered by glycerol phosphate” value ([5]; 8, 25, and 80 µM) of the same compound?
Its value is “significantly decreased”.
